1 molecule from patent US20030170740A1, “Characterized E2IG3 protein for diagnosis and treatment of proliferative diseases” (priority 2001, published 2003) can be followed below.

SMILES strings stand for the structures.

The assay relates to MCF-7 cells. Kind of assay: High dose E2 treatment of MCF-7 cells (apoptosis). Conditions: high dose E2 treatment of MCF-7 cells. The format is cell-based, human.

With `C[C@]12CC[C@@H]3c4ccc(O)cc4CC[C@H]3[C@@H]1CC[C@@H]2O` [E2, 17B-estridiol], the “Effect of high dose E2 on cell fate (apoptosis)” value is “committed to apoptotic pathways”.
